Source: ChEMBL document CHEMBL1811766, “Structure-activity relationship studies of novel pyrazole and imidazole carboxamides as cannabinoid-1 (CB1) antagonists” (Bioorg Med Chem Lett, 2011)

tested on: Mus musculus; assay: Inhibition of WIN-55212 induced hypothermia in Swiss albino mouse assessed as change temperature at 3 mg/kg, po administered 30 mins after WIN55212 challenge measured after 30 mins; assay type: functional; conditions: 0.5 h

SMILES	inhibition in vivo at 3 mg/kg [%]
Cc1c(C(=O)NN2CCCCC2)nn(-c2ccc(Cl)cc2Cl)c1-c1ccc(Cl)cc1 [RIMONABANT]	99

target: T1, hERG (KCNH2) (Homo sapiens, UniProt Q12809); assay: Inhibition of human ERG expressed in HEK293 cells assessed as inhibition of potassium channel current at 10 uM after 5 mins by patch clamp assay; assay type: cell-based; conditions: HEK293 cells expressing human ERG
T1 sequence (Q12809 whole entry): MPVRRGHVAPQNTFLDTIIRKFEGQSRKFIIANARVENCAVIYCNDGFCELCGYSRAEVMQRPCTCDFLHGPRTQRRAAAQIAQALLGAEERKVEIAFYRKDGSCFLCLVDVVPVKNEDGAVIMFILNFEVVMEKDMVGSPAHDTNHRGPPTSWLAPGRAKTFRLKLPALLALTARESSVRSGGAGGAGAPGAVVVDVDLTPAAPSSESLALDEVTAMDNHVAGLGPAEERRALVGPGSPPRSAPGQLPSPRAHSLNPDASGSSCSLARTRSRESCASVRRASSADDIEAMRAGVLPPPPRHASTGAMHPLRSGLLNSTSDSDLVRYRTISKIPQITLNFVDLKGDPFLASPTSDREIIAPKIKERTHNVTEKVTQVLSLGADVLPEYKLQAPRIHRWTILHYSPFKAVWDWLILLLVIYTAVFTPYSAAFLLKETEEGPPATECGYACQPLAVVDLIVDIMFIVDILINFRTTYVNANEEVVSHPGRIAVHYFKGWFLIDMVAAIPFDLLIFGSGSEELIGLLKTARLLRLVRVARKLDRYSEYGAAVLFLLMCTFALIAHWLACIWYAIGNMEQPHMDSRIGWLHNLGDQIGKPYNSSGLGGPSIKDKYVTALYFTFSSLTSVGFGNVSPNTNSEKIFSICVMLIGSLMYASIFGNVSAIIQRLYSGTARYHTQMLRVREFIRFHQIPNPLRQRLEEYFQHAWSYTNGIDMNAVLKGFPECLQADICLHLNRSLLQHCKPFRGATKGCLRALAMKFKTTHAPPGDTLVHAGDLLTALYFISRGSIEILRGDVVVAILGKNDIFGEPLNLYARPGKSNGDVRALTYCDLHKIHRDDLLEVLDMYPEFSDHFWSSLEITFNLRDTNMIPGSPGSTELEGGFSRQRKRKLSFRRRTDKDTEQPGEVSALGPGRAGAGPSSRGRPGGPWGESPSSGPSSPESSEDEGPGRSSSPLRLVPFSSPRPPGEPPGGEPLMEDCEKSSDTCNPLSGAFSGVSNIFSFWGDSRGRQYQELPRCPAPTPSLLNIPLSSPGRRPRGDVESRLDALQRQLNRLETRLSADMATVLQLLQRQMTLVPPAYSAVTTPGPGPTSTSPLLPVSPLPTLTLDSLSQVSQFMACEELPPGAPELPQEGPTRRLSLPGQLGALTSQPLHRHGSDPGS

SMILES	inhibition at 5 min, 10 µM [%]
CCc1c(C(=O)NC(C)(C)c2nnnn2C)nn(-c2ccc(Cl)cc2Cl)c1-c1ccc(Cl)cc1	59.7

target: Cannabinoid receptor 1 (Rattus norvegicus) (UniProt P20272); assay: Displacement of [3H]SR141716A from rat brain CB1 receptor at 1 uM at pH 7.4 after 1 hr by liquid scintillation counting; conditions: not given
Sequence (P20272 whole entry): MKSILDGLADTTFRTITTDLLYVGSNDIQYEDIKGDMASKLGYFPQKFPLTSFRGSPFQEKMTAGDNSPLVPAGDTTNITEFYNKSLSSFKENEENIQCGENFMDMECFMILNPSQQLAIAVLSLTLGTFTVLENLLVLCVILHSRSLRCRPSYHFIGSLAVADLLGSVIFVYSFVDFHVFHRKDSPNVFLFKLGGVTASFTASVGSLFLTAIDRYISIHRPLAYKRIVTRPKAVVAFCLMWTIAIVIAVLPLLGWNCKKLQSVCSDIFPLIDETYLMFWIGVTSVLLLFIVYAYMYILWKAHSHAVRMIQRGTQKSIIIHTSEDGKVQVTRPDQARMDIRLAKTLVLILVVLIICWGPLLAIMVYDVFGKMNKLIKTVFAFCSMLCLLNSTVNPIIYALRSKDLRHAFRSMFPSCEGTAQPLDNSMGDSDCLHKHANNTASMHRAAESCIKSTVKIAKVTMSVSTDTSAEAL

inhibition [%]	SMILES
50	Cc1c(C(=O)NC(C)(C)c2nc(CC(=O)O)cs2)nn(-c2ccc(Cl)cc2Cl)c1-c1ccc(Cl)cc1
66	O=C(NC1(c2noc(C(F)(F)F)n2)CC1)c1nn(-c2ccc(Cl)cc2Cl)c(-c2ccc(Cl)cc2)c1C(=O)O
50	CCc1c(C(=O)NC(C)(C)c2nnnn2C)nn(-c2ccc(Cl)cc2Cl)c1-c1ccc(C(=O)O)cc1

SMILES	inhibition [%]
CCc1c(C(=O)NC(C)(C)c2nnnn2C)nn(-c2ccc(Cl)cc2Cl)c1-c1ccc(OCC(=O)O)cc1	25

target: Cannabinoid receptor 1 (Rattus norvegicus) (UniProt P20272); assay: Displacement of [3H]SR141716A from rat brain CB1 receptor at 100 nM at pH 7.4 after 1 hr by liquid scintillation counting; conditions: not given

inhibition [%]	SMILES
38	COc1ccc2c(c1)CCCc1c(C(=O)NC(C)(C)c3nnnn3C)nn(-c3ccc(Cl)cc3Cl)c1-2
42	Cc1c(C(=O)NC(C)(C)c2nnnn2C)nc(-c2ccc(Cl)cc2Cl)n1-c1ccc(Cl)cc1
44	O=C(NC1(c2noc(C(F)(F)F)n2)CC1)c1nn(-c2ccc(Cl)cc2Cl)c(-c2ccc(Cl)cc2)c1C(=O)O
23	CCc1c(C(=O)NC(C)(C)c2nnnn2C)nn(-c2ccc(Cl)cc2Cl)c1-c1ccc(O)cc1
32	CCOC(=O)COc1ccc(-c2c(CC)c(C(=O)NC(C)(C)c3nnnn3C)nn2-c2ccc(Cl)cc2Cl)cc1

tested on: not listed separately; assay: AUC (0 to 24 hrs) in Swiss albino mouse at 30 mg/kg, po; assay type: ADME, organism-based; parameters: time < 24 hr, dose 30 mg/kg, route oral; conditions: plasma

SMILES	AUC(0-t) at 24 h [ng·h/mL]
Cc1c(C(=O)NC2(c3noc(C(F)(F)F)n3)CC2)nn(-c2ccc(Cl)cc2Cl)c1-c1ccc(Cl)cc1	4300

tested on: Mus musculus; assay: Antiobesity activity in Swiss albino mouse assessed as reduction in acute food intake administered orally as single dose; assay type: functional, organism-based; conditions: not given

SMILES	Activity
Cc1c(C(=O)NC2(c3noc(C(F)(F)F)n3)CC2)nn(-c2ccc(Cl)cc2Cl)c1-c1ccc(Cl)cc1	Dose-dependent effect

target: T1, hERG (KCNH2); assay: Inhibition of human ERG expressed in HEK293 cells assessed as inhibition of potassium channel current at 30 uM after 5 mins by patch clamp assay; assay type: cell-based; conditions: HEK293 cells expressing human ERG

SMILES	inhibition at 5 min, 30 µM [%]
CC(C)(NC(=O)c1nn(-c2ccc(Cl)cc2Cl)c(-c2ccc(Cl)cc2)c1CO)c1noc(C(F)(F)F)n1	38.9
Cc1c(C(=O)NC2(c3noc(C(F)(F)F)n3)CC2)nn(-c2ccc(Cl)cc2Cl)c1-c1ccc(Cl)cc1	7.2

tested on: not listed separately; assay: Half life in Swiss albino mouse at 30 mg/kg, po; assay type: ADME, organism-based; parameters: dose 30 mg/kg, route oral; conditions: in vivo

SMILES	half-life [min]
Cc1c(C(=O)NC2(c3noc(C(F)(F)F)n3)CC2)nn(-c2ccc(Cl)cc2Cl)c1-c1ccc(Cl)cc1	253

tested on: Mus musculus; assay: Antiobesity activity in Swiss albino mouse assessed as reduction in acute food intake at 10 mg/kg, po administered as single dose relative to control; assay type: functional; parameters: scale not given: the % may be the effect or the level left; conditions: not given

SMILES	Activity [%]
Cc1c(C(=O)NN2CCCCC2)nn(-c2ccc(Cl)cc2Cl)c1-c1ccc(Cl)cc1 [RIMONABANT]	71
Cc1c(C(=O)NC2(c3noc(C(F)(F)F)n3)CC2)nn(-c2ccc(Cl)cc2Cl)c1-c1ccc(Cl)cc1	31

target: Cannabinoid receptor 2 (Homo sapiens) (UniProt P34972); assay: Displacement of [3H]CP55940 from human cannabinoid CB2 receptor expressed in CHO cells at 1 uM at pH 7.4 after 1 hr by liquid scintillation counting; assay type: cell-based; conditions: not given
Sequence (P34972 whole entry): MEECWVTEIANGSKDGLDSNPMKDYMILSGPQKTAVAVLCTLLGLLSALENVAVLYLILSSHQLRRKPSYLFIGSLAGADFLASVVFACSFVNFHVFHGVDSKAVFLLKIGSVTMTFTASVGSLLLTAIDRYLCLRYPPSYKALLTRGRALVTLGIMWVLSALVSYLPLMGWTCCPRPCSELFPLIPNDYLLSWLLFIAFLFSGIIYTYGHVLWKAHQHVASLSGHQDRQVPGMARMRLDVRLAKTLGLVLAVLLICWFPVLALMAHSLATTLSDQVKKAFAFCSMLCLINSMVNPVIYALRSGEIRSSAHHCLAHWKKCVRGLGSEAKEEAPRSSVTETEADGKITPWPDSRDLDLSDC

SMILES	inhibition [%]
CCc1c(C(=O)NC(C)(C)c2nnnn2C)nn(-c2ccc(Cl)cc2Cl)c1-c1ccc(Br)cc1	27
O=C(NC1(c2noc(C(F)(F)F)n2)CC1)c1nn(-c2ccc(Cl)cc2Cl)c(-c2ccc(Cl)cc2)c1CO	18
Cc1c(C(=O)NN2CCCCC2)nn(-c2ccc(Cl)cc2Cl)c1-c1ccc(Cl)cc1 [RIMONABANT]	34
CC(C)(NC(=O)c1nn(-c2ccc(Cl)cc2Cl)c(-c2ccc(Cl)cc2)c1CO)c1noc(C(F)(F)F)n1	34
Cc1c(C(=O)NC2(c3noc(C(F)(F)F)n3)CC2)nn(-c2ccc(Cl)cc2Cl)c1-c1ccc(Cl)cc1	49
Cc1c(C(=O)NC(C)(C)c2nnc(C(F)(F)F)o2)nn(-c2ccc(Cl)cc2Cl)c1-c1ccc(Cl)cc1	64
CCc1c(C(=O)NC(C)(C)c2nnnn2C)nn(-c2ccc(Cl)cc2Cl)c1-c1ccc(Cl)cc1	16

tested on: Mus musculus; assay: Antiobesity activity in Swiss albino mouse assessed as reduction in acute food intake at 30 mg/kg, po administered as single dose relative to control; assay type: functional; parameters: scale not given: the % may be the effect or the level left; conditions: not given

SMILES	Activity [%]
Cc1c(C(=O)NC2(c3noc(C(F)(F)F)n3)CC2)nn(-c2ccc(Cl)cc2Cl)c1-c1ccc(Cl)cc1	53

tested on: not listed separately; assay: Ratio of drug level in brain to plasma in Swiss albino mouse at 30 mg/kg, po measured 1 hr post dose; assay type: ADME, organism-based; parameters: dose 30 mg/kg, route oral; conditions: read-out: BPR

SMILES	Kp at 1 h
Cc1c(C(=O)NN2CCCCC2)nn(-c2ccc(Cl)cc2Cl)c1-c1ccc(Cl)cc1 [RIMONABANT]	3.64
Cc1c(C(=O)NC2(c3noc(C(F)(F)F)n3)CC2)nn(-c2ccc(Cl)cc2Cl)c1-c1ccc(Cl)cc1	0.21

tested on: Mus musculus; assay: Inhibition of WIN-55212 induced hypothermia in Swiss albino mouse assessed as change temperature at 10 mg/kg, po administered 30 mins after WIN55212 challenge measured after 30 mins; assay type: functional; conditions: 0.5 h

SMILES	inhibition in vivo at 10 mg/kg [%]
CCc1c(C(=O)NC(C)(C)c2nnnn2C)nn(-c2ccc(Cl)cc2Cl)c1-c1ccc(Br)cc1	83
O=C(NC1(c2noc(C(F)(F)F)n2)CC1)c1nn(-c2ccc(Cl)cc2Cl)c(-c2ccc(Cl)cc2)c1CO	99
CC(C)(NC(=O)c1nn(-c2ccc(Cl)cc2Cl)c(-c2ccc(Cl)cc2)c1CO)c1noc(C(F)(F)F)n1	97
Cc1c(C(=O)NC2(c3noc(C(F)(F)F)n3)CC2)nn(-c2ccc(Cl)cc2Cl)c1-c1ccc(Cl)cc1	97
Cc1c(C(=O)NC(C)(C)c2nnc(C(F)(F)F)o2)nn(-c2ccc(Cl)cc2Cl)c1-c1ccc(Cl)cc1	97
CCc1c(C(=O)NC(C)(C)c2nnnn2C)nn(-c2ccc(Cl)cc2Cl)c1-c1ccc(Cl)cc1	96

target: Cannabinoid receptor 1 (Rattus norvegicus, UniProt P20272); assay: Displacement of [3H]SR141716A from rat brain CB1 receptor at pH 7.4 after 1 hr by liquid scintillation counting; conditions: not given
Sequence (P20272 whole entry): as the sequence (P20272 whole entry) above

IC50 [nM]	SMILES
1	CCOC(=O)c1c(C(=O)NC2(c3noc(C(F)(F)F)n3)CC2)nn(-c2ccc(Cl)cc2Cl)c1-c1ccc(Cl)cc1
0.8	Cc1c(C(=O)NC2(c3noc(C(F)(F)F)n3)CCC2)nn(-c2ccc(Cl)cc2Cl)c1-c1ccc(Cl)cc1
22	CCc1c(C(=O)NC(C)(C)c2nnnn2C)nn(-c2ccc(Cl)cc2Cl)c1-c1ccc(C#N)cc1
4	COCc1c(C(=O)NC(C)(C)c2noc(C(F)(F)F)n2)nn(-c2ccc(Cl)cc2Cl)c1-c1ccc(Cl)cc1
3	CCc1c(C(=O)NC(C)(C)c2noc(C(F)(F)F)n2)nc(-c2ccc(Cl)cc2Cl)n1-c1ccc(Cl)cc1
17	CCOC(=O)c1ccc(-c2c(CC)c(C(=O)NC(C)(C)c3nnnn3C)nn2-c2ccc(Cl)cc2Cl)cc1
0.3	C[C@H](NC(=O)C(C)(C)Oc1ccc(C(F)(F)F)cn1)[C@@H](Cc1ccc(Cl)cc1)c1cccc(C#N)c1 [TARANABANT]
15	Cc1csc(C(C)(C)NC(=O)c2nn(-c3ccc(Cl)cc3Cl)c(-c3ccc(Cl)cc3)c2C)n1
36	CCc1c(C(=O)NC(C)(C)c2nnnn2C)nc(-c2ccc(Cl)cc2Cl)n1-c1ccc(Cl)cc1
6	CCC(C)(NC(=O)c1nn(-c2ccc(Cl)cc2Cl)c(-c2ccc(Cl)cc2)c1C)c1noc(C(F)(F)F)n1 (stereo not given)
39	CCc1c(C(=O)NC(C)(C)c2nnn(C)n2)nn(-c2ccc(Cl)cc2Cl)c1-c1ccc(Cl)cc1
5	CCc1c(C(=O)NC(C)(C)c2nnnn2C)nn(-c2ccc(Cl)cc2Cl)c1-c1ccc(OC)cc1
22	CCOC(=O)c1sc(C(C)(C)NC(=O)c2nn(-c3ccc(Cl)cc3Cl)c(-c3ccc(Cl)cc3)c2C)nc1C
13	CC(C)(NC(=O)c1cn(-c2ccc(Cl)cc2Cl)c(-c2ccc(Cl)cc2)n1)c1nnc(C(F)(F)F)o1
30	CC(C)(NC(=O)c1cn(-c2ccc(Cl)cc2Cl)c(-c2ccc(Cl)cc2)n1)c1noc(C(F)(F)F)n1
63	Cc1c(C(=O)NC(C)(C)c2cn3cc(C(F)(F)F)ccc3n2)nn(-c2ccc(Cl)cc2Cl)c1-c1ccc(Cl)cc1
12	Cc1ncc(C(C)(C)NC(=O)c2nn(-c3ccc(Cl)cc3Cl)c(-c3ccc(Cl)cc3)c2C)s1
11	Cc1c(C(=O)NC(C)(C)c2cn3ccsc3n2)nn(-c2ccc(Cl)cc2Cl)c1-c1ccc(Cl)cc1
10	CCOC(=O)Cc1csc(C(C)(C)NC(=O)c2nn(-c3ccc(Cl)cc3Cl)c(-c3ccc(Cl)cc3)c2C)n1
2	Cc1c(C(=O)NC(C)(C)c2nc(C(F)(F)F)cs2)nn(-c2ccc(Cl)cc2Cl)c1-c1ccc(Cl)cc1
88	Cc1c(C(=O)NC(C)(C)c2nnn(C)n2)nn(-c2ccc(Cl)cc2Cl)c1-c1ccc(Cl)cc1
33	Cc1nc(C(C)(C)NC(=O)c2nn(-c3ccc(Cl)cc3Cl)c(-c3ccc(Cl)cc3)c2C)no1
121	Cc1c(C(=O)NC(C)(C)c2cn3cccnc3n2)nn(-c2ccc(Cl)cc2Cl)c1-c1ccc(Cl)cc1
88	Cc1c(C(=O)NC(C)(C)c2cn3cc(Cl)ccc3n2)nn(-c2ccc(Cl)cc2Cl)c1-c1ccc(Cl)cc1
145	Cc1c(C(=O)NC(C)(C)c2nnnn2C)nn(-c2ccc(Cl)cc2Cl)c1-c1ccc(Cl)cc1
3	Cc1c(C(=O)NC(C)(C)c2noc(C(F)(F)F)n2)nn(-c2ccc(Cl)cc2Cl)c1-c1ccc(Cl)cc1
31	Cn1nnnc1C(C)(C)NC(=O)c1nn(-c2ccc(Cl)cc2Cl)c2c1CCCc1cc(Cl)ccc1-2
1.1	CCCS(=O)(=O)Oc1ccc(-c2c(C)c(C(=O)NC(C)(C)c3nnnn3C)nn2-c2ccc(Cl)cc2Cl)cc1

SMILES	IC50 [nM]
CCc1c(C(=O)NC(C)(C)c2nnnn2C)nn(-c2ccc(Cl)cc2Cl)c1-c1ccc(OCC(=O)O)cc1	> 1000
CCc1c(C(=O)NC(C)(C)c2nnnn2C)nn(-c2ccc(Cl)cc2Cl)c1-c1ccc(Br)cc1	0.1
O=C(NC1(c2noc(C(F)(F)F)n2)CC1)c1nn(-c2ccc(Cl)cc2Cl)c(-c2ccc(Cl)cc2)c1CO	0.1
CC(C)(NC(=O)c1nn(-c2ccc(Cl)cc2Cl)c(-c2ccc(Cl)cc2)c1CO)c1noc(C(F)(F)F)n1	0.4
Cc1c(C(=O)NC2(c3noc(C(F)(F)F)n3)CC2)nn(-c2ccc(Cl)cc2Cl)c1-c1ccc(Cl)cc1	0.1
Cc1c(C(=O)NC(C)(C)c2nnc(C(F)(F)F)o2)nn(-c2ccc(Cl)cc2Cl)c1-c1ccc(Cl)cc1	6
CCc1c(C(=O)NC(C)(C)c2nnnn2C)nn(-c2ccc(Cl)cc2Cl)c1-c1ccc(Cl)cc1	0.5

target: Voltage-gated inwardly rectifying potassium channel KCNH2 (Homo sapiens, UniProt Q12809); assay: Inhibition of human ERG expressed in HEK293 cells assessed as inhibition of potassium channel current after 5 mins by patch clamp assay; assay type: cell-based; conditions: not given
Sequence (Q12809 whole entry): as the sequence (Q12809 whole entry) above

SMILES	IC50 [µM]
CCc1c(C(=O)NC(C)(C)c2nnnn2C)nn(-c2ccc(Cl)cc2Cl)c1-c1ccc(Br)cc1	22.7
Cc1c(C(=O)NN2CCCCC2)nn(-c2ccc(Cl)cc2Cl)c1-c1ccc(Cl)cc1 [RIMONABANT]	2.79
CC(C)(NC(=O)c1nn(-c2ccc(Cl)cc2Cl)c(-c2ccc(Cl)cc2)c1CO)c1noc(C(F)(F)F)n1	> 30
Cc1c(C(=O)NC2(c3noc(C(F)(F)F)n3)CC2)nn(-c2ccc(Cl)cc2Cl)c1-c1ccc(Cl)cc1	> 30

tested on: not listed separately; assay: Cmax in Swiss albino mouse at 30 mg/kg, po; assay type: ADME, organism-based; parameters: dose 30 mg/kg, route oral; conditions: in vivo

SMILES	Cmax [ng/mL]
Cc1c(C(=O)NC2(c3noc(C(F)(F)F)n3)CC2)nn(-c2ccc(Cl)cc2Cl)c1-c1ccc(Cl)cc1	350

tested on: Mus musculus; assay: Antiobesity activity in C57BL/6 mouse assessed as reduction in body weight at 10 mg/kg, po QD for 15 days; assay type: functional; parameters: scale not given: the % may be the effect or the level left; conditions: not given

SMILES	Activity [%]
Cc1c(C(=O)NC2(c3noc(C(F)(F)F)n3)CC2)nn(-c2ccc(Cl)cc2Cl)c1-c1ccc(Cl)cc1	11
